US7705030B2, “Amino-5-(5-membered)hetero-arylimidazolone compounds and the use thereof for β-secretase modulation” (Wyeth LLC, priority 2005, dated 2010)

Columns and labels:
human BACE1 = human BACE1 (Homo sapiens, UniProt P56817); assay: Fluorescent kinetic assay: Evaluation of BACE-1 Binding Affinity of Test Compounds; assay type: biochemical; conditions: 10 nM enzyme, 25 μM substrate WABC-6, 50 mM Na-Acetate pH 4.5, room temperature
Summary of the method: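 Run with 10 nM human BACE1 and 25 μM WABC-6 FRET peptide in 50 mM Na-acetate pH 4.5, 0.05% CHAPS, 25% PBS at room temperature. Fluorescence (ex 320/em 420 nm) was read every 40 sec for 30 min, and initial cleavage rates were taken from linear slopes across ≥10 inhibitor concentrations.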

human BACE1, sequence (P56817 46-501): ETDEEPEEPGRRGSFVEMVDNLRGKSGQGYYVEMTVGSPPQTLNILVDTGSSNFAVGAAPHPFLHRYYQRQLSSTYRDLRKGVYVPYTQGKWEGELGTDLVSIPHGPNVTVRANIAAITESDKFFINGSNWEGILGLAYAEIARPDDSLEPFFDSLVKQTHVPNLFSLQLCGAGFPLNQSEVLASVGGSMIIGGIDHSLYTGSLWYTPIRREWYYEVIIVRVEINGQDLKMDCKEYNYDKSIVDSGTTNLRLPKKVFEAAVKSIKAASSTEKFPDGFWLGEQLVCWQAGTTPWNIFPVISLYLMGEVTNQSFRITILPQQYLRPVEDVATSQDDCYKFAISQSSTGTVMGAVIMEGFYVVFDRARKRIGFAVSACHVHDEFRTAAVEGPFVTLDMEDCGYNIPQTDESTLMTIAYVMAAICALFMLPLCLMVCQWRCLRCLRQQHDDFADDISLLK

| SMILES | melting point [°C] | IC50 (human BACE1) [nM] |
| --- | --- | --- |
| CCC(=O)c1cc(C2(c3cccc(-c4cncnc4)c3)N=C(N)N(C)C2=O)cs1 (stereo not drawn) [Example 116, 2-Amino-3-methyl-5-(5-propionyl-thiophen-3-yl)-5-(3-pyrimidin-5-yl-phenyl)-3,5-dihydro-imidazol-4-one] | 167 to 172 | 10 to 100 |
| COC(=O)c1cc(C2(c3ccc(F)c(-c4cncnc4)c3)N=C(N)N(C)C2=O)cn1CCF (stereo not drawn) [Example 118, Methyl 4-[2-Amino-4-(4-fluoro-3-pyrimidinyl-5-phenyl)-1-methyl-5-oxo-4,5-dihydro-1H-imidazol-4-yl]-1-(2-fluoroethyl)-1H-pyrrole-2-carboxylate] | 88 to 90 | 10 to 100 |
| COC(=O)c1cc([C@]2(c3ccc(F)c(-c4cncnc4)c3)N=C(N)N(C)C2=O)cn1CCF [Example 119A, Methyl 4-[(4S)2-Amino-4-(4-fluoro-3-pyrimidinyl-5-phenyl)-1-methyl-5-oxo-4,5-dihydro-1H-imidazol-4-yl]-1-(2-fluoroethyl)-1H-pyrrole-2-carboxylate] | 186 to 188 | 10 to 100 |
| COC(=O)c1cc([C@@]2(c3ccc(F)c(-c4cncnc4)c3)N=C(N)N(C)C2=O)cn1CCF [Example 119B, Methyl 4-[(4R)2-Amino-4-(4-fluoro-3-pyrimidinyl-5-phenyl)-1-methyl-5-oxo-4,5-dihydro-1H-imidazol-4-yl]-1-(2-fluoroethyl)-1H-pyrrole-2-carboxylate] | 186 to 188 | 110 to 1000 |
| COC(=O)c1cc(C2(c3ccc(F)c(-c4cncnc4)c3)N=C(N)N(C)C2=O)cn1CC(F)(F)F (stereo not drawn) [Example 121] | 182 to 184 | 10 to 100 |
| COC(=O)c1cc(C2(c3ccc(F)c(-c4cccnc4F)c3)N=C(N)N(C)C2=O)cn1CCF (stereo not drawn) [Example 122] | 127 to 128 | 10 to 100 |
| CCn1cc(C2(c3ccc(F)c(-c4cccnc4F)c3)N=C(N)N(C)C2=O)cc1C(=O)OC (stereo not drawn) [Example 123] | 113 to 115 | 10 to 100 |
| CC(C)OC(=O)c1cc(C2(c3ccc(F)c(-c4cccnc4F)c3)N=C(N)N(C)C2=O)cn1CCF (stereo not drawn) [Example 124] | 117 to 118 | 110 to 1000 |
| CCOC(=O)c1cc(C2(c3ccc(F)c(-c4cccnc4F)c3)N=C(N)N(C)C2=O)cn1CC (stereo not drawn) [Example 125] | 114 to 115 | 10 to 100 |
| CC(C)OC(=O)c1cc(C2(c3ccc(F)c(-c4cncnc4)c3)N=C(N)N(C)C2=O)cn1CCF (stereo not drawn) [Example 127] | 167 to 170 | 110 to 1000 |
| CCOc1ccc(C2(c3cc(C(=O)NC)n(CC)c3)N=C(N)N(C)C2=O)cc1-c1cccnc1F (stereo not drawn) [Example 128] | 148 to 150 | > 1000 |
| CCCC(=O)Nc1cccc(C2(c3cc(C(=O)CC)n(CC)c3)N=C(N)N(C)C2=O)c1 (stereo not drawn) [Example 129, N-{3-[2-amino-4-(1-ethyl-5-propionyl-1H-pyrrol-3-yl)-1-methyl-5-oxo-4,5-dihydro-1H-imidazol-4-yl]-phenyl}-butyramide] | 201 to 205 | 110 to 1000 |
| CCC(=O)Nc1cccc(C2(c3cc(C(=O)CC)n(CC)c3)N=C(N)N(C)C2=O)c1 (stereo not drawn) [Example 130, N-{3-[2-amino-4-(1-ethyl-5-propionyl-1H-pyrrol-3-yl)-1-methyl-5-oxo-4,5-dihydro-1H-imidazol-4-yl]-phenyl}-propionamide] | 120 to 141 | 110 to 1000 |
| CCC(=O)c1cc(C2(c3cccc(NC(=O)COC)c3)N=C(N)N(C)C2=O)cn1CC (stereo not drawn) [Example 131, N-{3-[2-amino-4-(1-ethyl-5-propionyl-1H-pyrrol-3-yl)-1-methyl-5-oxo-4,5-dihydro-1H-imidazol-4-yl]-phenyl}-2-methoxy-acetamide] | 95 to 115 | 10 to 100 |
| CCCOc1cccc(C2(c3cc(C(=O)CC)n(CC)c3)N=C(N)N(C)C2=O)c1 (stereo not drawn) [Example 132, 2-Amino-5-(1-ethyl-5-propionyl-1H-pyrrol-3-yl)-3-methyl-5-(3-propoxyphenyl)-3,5-dihydro-4H-imidazol-4-one] | 95 | 10 to 100 |
| CCCCCOc1cccc(C2(c3cc(C(=O)CC)n(CC)c3)N=C(N)N(C)C2=O)c1 (stereo not drawn) [Example 133] | 70 | 10 to 100 |
| CCC(=O)c1cc(C2(c3cccc(OCCC(C)(C)C)c3)N=C(N)N(C)C2=O)cn1CC (stereo not drawn) [Example 134] | 93 | 110 to 1000 |
| CCCCOc1cccc(C2(c3cc(C(=O)CC)n(CC)c3)N=C(N)N(C)C2=O)c1 (stereo not drawn) [Example 136] | 76 | 110 to 1000 |
| CCC(=O)c1cc(C2(c3cccc(OCC4CC4)c3)N=C(N)N(C)C2=O)cn1CC (stereo not drawn) [Example 137] | 86 | 10 to 100 |
| CCC(=O)c1cc(C2(c3cccc(OCC(C)C)c3)N=C(N)N(C)C2=O)cn1CC (stereo not drawn) [Example 138] | 78 | 10 to 100 |

The next lines start with the values.

| melting point [°C] | IC50 (human BACE1) [nM] | SMILES |
| --- | --- | --- |
| 69 | 10 to 100 | C=CCCCOc1cccc(C2(c3cc(C(=O)CC)n(CC)c3)N=C(N)N(C)C2=O)c1 (stereo not drawn) [Example 140] |
| 79 to 81 | 110 to 1000 | CCCOc1cccc(C2(c3cccs3)N=C(N)N(C)C2=O)c1 (stereo not drawn) [Example 141, 2-Amino-3-methyl-5-(3-propoxyphenyl)-5-thien-2-yl-3,5-dihydro-4H-imidazol-4-one] |
| 84 to 88 | 110 to 1000 | CC(C)CCOc1cccc(C2(c3ccsc3)N=C(N)N(C)C2=O)c1 (stereo not drawn) [Example 144] |
| 88 to 90 | > 1000 | CN1C(=O)C(c2ccsc2)(c2cccc(OCC3CCCCC3)c2)N=C1N (stereo not drawn) [Example 147] |
| 70 to 73 | 110 to 1000 | CC(C)COc1cccc(C2(c3ccsc3)N=C(N)N(C)C2=O)c1 (stereo not drawn) [Example 148] |
| 118 | 10 to 100 | CCCn1cc(C2(c3cccc(-c4cccnc4F)c3)N=C(N)N(C)C2=O)cc1C(=O)CC (stereo not drawn) [Example 149, 2-Amino-5-[3-(2-fluoropyridin-3-yl)phenyl]-3-methyl-5-(5-propionyl-1-propyl-1H-pyrrol-3-yl)-3,5-dihydro-4H-imidazol-4-one] |
| 105 | 10 to 100 | CCC(=O)c1cc(C2(c3cccc(-c4cccnc4F)c3)N=C(N)N(C)C2=O)cn1CCCF (stereo not drawn) [Example 152] |
| 126 to 128 | 10 to 100 | CCC(=O)c1cc(C2(c3cccc(-c4cccnc4F)c3)N=C(N)N(C)C2=O)cn1CC (stereo not drawn) [Example 155] |
| 138 to 140 | 10 to 100 | CCn1cc(C2(c3cccc(-c4cccnc4F)c3)N=C(N)N(C)C2=O)cc1C(=O)NC (stereo not drawn) [Example 157] |
| 132 to 135 | 10 to 100 | CCNC(=O)c1cc(C2(c3cccc(-c4cccnc4F)c3)N=C(N)N(C)C2=O)cn1CC (stereo not drawn) [Example 158] |
| 120 to 123 | 110 to 1000 | CCCNC(=O)c1cc(C2(c3cccc(-c4cccnc4F)c3)N=C(N)N(C)C2=O)cn1CC (stereo not drawn) [Example 159] |
| 118 to 120 | 10 to 100 | CCCCNC(=O)c1cc(C2(c3cccc(-c4cccnc4F)c3)N=C(N)N(C)C2=O)cn1CC (stereo not drawn) [Example 160] |
| 121 to 123 | 110 to 1000 | CCn1cc(C2(c3cccc(-c4cccnc4F)c3)N=C(N)N(C)C2=O)cc1C(=O)NC(C)C (stereo not drawn) [Example 161] |
| 127 to 128 | 110 to 1000 | CCn1cc(C2(c3cccc(-c4cccnc4F)c3)N=C(N)N(C)C2=O)cc1C(=O)NC1CCCC1 (stereo not drawn) [Example 162] |
| 111 to 113 | 10 to 100 | CCn1cc(C2(c3cccc(-c4cccnc4F)c3)N=C(N)N(C)C2=O)cc1C(=O)N1CCCCC1 (stereo not drawn) [Example 163] |
| 108 to 109 | 10 to 100 | CCn1cc(C2(c3cccc(-c4cccnc4F)c3)N=C(N)N(C)C2=O)cc1C(=O)N1CCOCC1 (stereo not drawn) [Example 164] |
| > 200 | 110 to 1000 | CCn1cc(C2(c3cccc(-c4cccnc4F)c3)N=C(N)N(C)C2=O)cc1C(=O)N(C)C (stereo not drawn) [Example 165] |
| 110 to 112 | 110 to 1000 | CCn1cc(C2(c3cccc(-c4cccnc4F)c3)N=C(N)N(C)C2=O)cc1C(=O)NCc1ccc(F)cc1 (stereo not drawn) [Example 166] |
| 100 | 10 to 100 | CCC(=O)c1cc(C2(c3cccc(-c4cccnc4F)c3)N=C(N)N(C)C2=O)cn1CCF (stereo not drawn) [Example 167] |
| 71 to 73 | 10 to 100 | CCCCCC(=O)c1cc(C2(c3cccc(-c4cccnc4F)c3)N=C(N)N(C)C2=O)cn1CC (stereo not drawn) [Example 169] |
| 104 to 106 | 10 to 100 | CCn1cc(C2(c3cccc(-c4cccnc4F)c3)N=C(N)N(C)C2=O)cc1C(=O)c1ccccc1 (stereo not drawn) [Example 170] |
| 94 to 100 | 10 to 100 | CCn1cc(C2(c3cccc(-c4cccnc4F)c3)N=C(N)N(C)C2=O)cc1C(=O)C1CCCCC1 (stereo not drawn) [Example 171] |
| 98 to 100 | 10 to 100 | CCn1cc(C2(c3cccc(-c4cccnc4F)c3)N=C(N)N(C)C2=O)cc1C(=O)C1CC1 (stereo not drawn) [Example 172] |
| 85 to 88 | 10 to 100 | CCn1cc(C2(c3cccc(-c4cccnc4F)c3)N=C(N)N(C)C2=O)cc1C(=O)C(C)C (stereo not drawn) [Example 173] |
| 210 to 211 | 10 to 100 | CCC(C)C(=O)c1cc(C2(c3cccc(-c4cccnc4F)c3)N=C(N)N(C)C2=O)cn1CC (stereo not drawn) [Example 174] |
| 91 to 94 | 10 to 100 | CCC(=O)c1cc(C2(c3cccc(-c4cccnc4F)c3)N=C(N)N(C)C2=O)cn1CCCC(F)(F)F (stereo not drawn) [Example 176] |
| 105 | 10 to 100 | CCC(=O)c1cc(C2(c3cccc(-c4cccnc4F)c3)N=C(N)N(C)C2=O)cn1CCCCF (stereo not drawn) [Example 178] |
| 98 to 102 | 10 to 100 | CCC(=O)c1cc(C2(c3cccc(-c4cccnc4F)c3)N=C(N)N(C)C2=O)cn1CC(C)C (stereo not drawn) [Example 179] |
